Assay results as given in PubChem BioAssay (NCI).
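Values below derive from 48-hour exposures of cells grown in 96-well plates, with endpoints linearly interpolated between the two concentrations bracketing the appropriate inhibition level. TGI is the concentration that stops growth completely.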

Columns and labels:
Experiment in all cases: NCI-60 cell line screen, 48 h
SK-MEL-28 melanoma = test system: SK-MEL-28 melanoma
HCC-2998 colon = test system: HCC-2998 colon
NCI-H226 lung = test system: NCI-H226 lung
HCT-116 colon = test system: HCT-116 colon
MCF7 breast = test system: MCF7 breast
HL-60(TB) leukemia = test system: HL-60(TB) leukemia
A498 renal = test system: A498 renal
HCT-15 colon = test system: HCT-15 colon
HT29 colon = test system: HT29 colon
SR leukemia = test system: SR leukemia

## O=S(=O)(CCBr)CCBr
SK-MEL-28 melanoma
  TGI: 8.61 µM
HCC-2998 colon
  TGI: 18.1 µM
NCI-H226 lung
  TGI: 54.9 µM
HCT-116 colon
  TGI: 10.5 µM
MCF7 breast
  TGI: 18.3 µM
HL-60(TB) leukemia
  TGI: 5.93 µM
A498 renal
  TGI: 14.8 µM
HCT-15 colon
  TGI: 7.88 µM
HT29 colon
  TGI: 20.3 µM

## NC(N)=N/N=C/c1nc2n(c1[N+](=O)[O-])CCS2
SK-MEL-28 melanoma
  TGI: > 100 µM
NCI-H226 lung
  TGI: > 100 µM
HCT-116 colon
  TGI: 54.1 µM
SR leukemia
  TGI: 88.2 µM
MCF7 breast
  TGI: > 100 µM
HL-60(TB) leukemia
  TGI: 55 µM
A498 renal
  TGI: > 100 µM
HCT-15 colon
  TGI: > 100 µM
HT29 colon
  TGI: > 100 µM

## COc1cc2c(cc1OC)C(C(CO)CO)N(CC(O)CCl)CC2 (stereo not given)
SK-MEL-28 melanoma
  TGI: > 100 µM
HCC-2998 colon
  TGI: > 100 µM
NCI-H226 lung
  TGI: > 100 µM
HL-60(TB) leukemia
  TGI: > 100 µM
A498 renal
  TGI: > 100 µM
HCT-15 colon
  TGI: > 100 µM
HT29 colon
  TGI: > 100 µM

## CCOC(=O)c1cc(-c2cc(OC)c(OC)c([N+](=O)[O-])c2)c([N+](=O)[O-])n1C
HCC-2998 colon
  TGI: > 10 µM
NCI-H226 lung
  TGI: > 10 µM
HCT-116 colon
  TGI: > 10 µM
SR leukemia
  TGI: > 10 µM
HL-60(TB) leukemia
  TGI: > 10 µM
HCT-15 colon
  TGI: > 10 µM
HT29 colon
  TGI: > 10 µM

## O=C(/C=C/c1ccc(O)cc1)c1ccc2c(c1)OCO2
SK-MEL-28 melanoma
  TGI: 42.3 µM
HCC-2998 colon
  TGI: 40.5 µM
NCI-H226 lung
  TGI: 34.1 µM
HCT-116 colon
  TGI: 25.4 µM
SR leukemia
  TGI: 33.6 µM
HL-60(TB) leukemia
  TGI: 41.3 µM
A498 renal
  TGI: 38.4 µM
HCT-15 colon
  TGI: 83.8 µM
HT29 colon
  TGI: 33.7 µM

## O=C(O)c1cc2ccccc2c(N=Nc2ccc(S(=O)(=O)Nc3nccs3)cc2)c1O
SK-MEL-28 melanoma
  TGI: > 100 µM
HCC-2998 colon
  TGI: > 100 µM
NCI-H226 lung
  TGI: > 100 µM
HCT-116 colon
  TGI: > 100 µM
SR leukemia
  TGI: > 100 µM
MCF7 breast
  TGI: > 100 µM
HL-60(TB) leukemia
  TGI: > 100 µM
HCT-15 colon
  TGI: > 100 µM
HT29 colon
  TGI: > 100 µM

## O=C(NCCC1([N+](=O)[O-])CCN(C(=O)c2ccccc2)CC1)c1ccccc1
NCI-H226 lung
  TGI: > 100 µM
HCT-116 colon
  TGI: > 100 µM
SR leukemia
  TGI: > 100 µM
HL-60(TB) leukemia
  TGI: > 100 µM
A498 renal
  TGI: > 100 µM
HCT-15 colon
  TGI: > 100 µM
HT29 colon
  TGI: > 100 µM

## N#CC1=C(N)n2c(s/c(=C\c3ccc(Cl)cc3)c2=O)=C(c2nc3ccccc3[nH]2)C1c1ccc(Cl)cc1 (stereo not given)
SK-MEL-28 melanoma
  TGI: 3.03 µM
HCC-2998 colon
  TGI: 1.7 µM
NCI-H226 lung
  TGI: 3.46 µM
HCT-116 colon
  TGI: 3.61 µM
SR leukemia
  TGI: 5.85 µM
HL-60(TB) leukemia
  TGI: 6.45 µM
A498 renal
  TGI: 4.29 µM
HCT-15 colon
  TGI: 4.2 µM

## C1CCC2(CC1)O[C@@H]1[C@@H](O2)[C@@H](O[C@H]2O[C@@H]3COC4(CCCCC4)O[C@H]3[C@@H]3OC4(CCCCC4)O[C@@H]23)O[C@@H]2COC3(CCCCC3)O[C@@H]12
SK-MEL-28 melanoma
  TGI: > 100 µM
HCT-116 colon
  TGI: > 100 µM
MCF7 breast
  TGI: > 100 µM
HL-60(TB) leukemia
  TGI: > 100 µM
A498 renal
  TGI: > 100 µM
HT29 colon
  TGI: > 100 µM

## CC(=O)OCCOCn1c2c(c(=S)[nH]c1=O)CCC2
SK-MEL-28 melanoma
  TGI: > 100 µM
HCC-2998 colon
  TGI: > 100 µM
NCI-H226 lung
  TGI: > 100 µM
HCT-116 colon
  TGI: > 100 µM
SR leukemia
  TGI: > 100 µM
MCF7 breast
  TGI: > 100 µM
HL-60(TB) leukemia
  TGI: > 100 µM
HCT-15 colon
  TGI: > 100 µM
HT29 colon
  TGI: > 100 µM

## O=CN1CCN(C(=O)c2ccc(Cl)cc2Cl)C1=S
SK-MEL-28 melanoma
  TGI: > 100 µM
HCC-2998 colon
  TGI: > 100 µM
NCI-H226 lung
  TGI: > 100 µM
HCT-116 colon
  TGI: > 100 µM
MCF7 breast
  TGI: > 100 µM
HL-60(TB) leukemia
  TGI: 69.2 µM
A498 renal
  TGI: > 100 µM
HCT-15 colon
  TGI: > 100 µM
HT29 colon
  TGI: > 100 µM

## Nc1ncnc2c1nnn2C1C=CC(COS(N)(=O)=O)C1 (stereo not given)
SK-MEL-28 melanoma
  TGI: 26.2 µM
HCC-2998 colon
  TGI: 76.2 µM
NCI-H226 lung
  TGI: 42.1 µM
HCT-116 colon
  TGI: 36.3 µM
SR leukemia
  TGI: > 100 µM
MCF7 breast
  TGI: > 100 µM
HL-60(TB) leukemia
  TGI: 17.1 µM
HCT-15 colon
  TGI: > 100 µM
HT29 colon
  TGI: 98.5 µM

## OC(c1cc2ccccc2o1)c1cc2ccccc2s1 (stereo not given)
SK-MEL-28 melanoma
  TGI: > 10 µM
HCC-2998 colon
  TGI: > 10 µM
NCI-H226 lung
  TGI: > 10 µM
HCT-116 colon
  TGI: > 10 µM
SR leukemia
  TGI: > 10 µM
MCF7 breast
  TGI: > 10 µM
HL-60(TB) leukemia
  TGI: > 10 µM
HCT-15 colon
  TGI: > 10 µM
HT29 colon
  TGI: > 10 µM

## O=C(/N=C/c1c(O)c2ccccc2oc1=O)Nc1ccccc1
SK-MEL-28 melanoma
  TGI: > 100 µM
HCC-2998 colon
  TGI: > 100 µM
NCI-H226 lung
  TGI: > 100 µM
HCT-116 colon
  TGI: > 100 µM
SR leukemia
  TGI: > 100 µM
HL-60(TB) leukemia
  TGI: > 100 µM
A498 renal
  TGI: > 100 µM
HCT-15 colon
  TGI: > 100 µM
HT29 colon
  TGI: > 100 µM

## CC[C@]12C=CCN3CC[C@@]4(c5cc(Br)c(OC)cc5N(C)[C@H]4[C@@](O)(C(=O)NN)[C@@H]1O)[C@@H]32
SK-MEL-28 melanoma
  TGI: > 100 µM
HCC-2998 colon
  TGI: > 100 µM
NCI-H226 lung
  TGI: > 100 µM
HCT-116 colon
  TGI: > 100 µM
MCF7 breast
  TGI: > 100 µM
HL-60(TB) leukemia
  TGI: > 100 µM
A498 renal
  TGI: > 100 µM
HCT-15 colon
  TGI: > 100 µM
HT29 colon
  TGI: > 100 µM

## CCCN1C(=O)CC(C)N(Cc2ccccc2Cl)C1=S (stereo not given)
SK-MEL-28 melanoma
  TGI: 62.4 µM
HCT-116 colon
  TGI: 79.4 µM
MCF7 breast
  TGI: 78.4 µM
HL-60(TB) leukemia
  TGI: > 100 µM
A498 renal
  TGI: 47 µM
HCT-15 colon
  TGI: > 100 µM
HT29 colon
  TGI: > 100 µM

## COC(=O)[C@@H]1[C@@H](c2cccc(Cl)c2)[C@H](C(=O)OC)C2(C[C@@]1(C)O)NCCS2 (stereo not given in full)
SK-MEL-28 melanoma
  TGI: > 100 µM
NCI-H226 lung
  TGI: > 100 µM
HCT-116 colon
  TGI: > 100 µM
MCF7 breast
  TGI: > 100 µM
A498 renal
  TGI: > 100 µM
HCT-15 colon
  TGI: > 100 µM
HT29 colon
  TGI: > 100 µM

## Cc1c(Cl)c2ccccc2n1S(=O)(=O)c1ccccc1
SK-MEL-28 melanoma
  TGI: > 100 µM
HCC-2998 colon
  TGI: > 100 µM
NCI-H226 lung
  TGI: > 100 µM
HCT-116 colon
  TGI: > 100 µM
SR leukemia
  TGI: > 100 µM
HL-60(TB) leukemia
  TGI: 78.8 µM
HCT-15 colon
  TGI: > 100 µM
HT29 colon
  TGI: > 100 µM

## COc1ccc(-c2cc(=O)c3cc4c(cc3[nH]2)OCO4)cc1OC
SK-MEL-28 melanoma
  TGI: > 100 µM
HCC-2998 colon
  TGI: > 100 µM
NCI-H226 lung
  TGI: > 100 µM
HCT-116 colon
  TGI: > 100 µM
SR leukemia
  TGI: > 100 µM
HL-60(TB) leukemia
  TGI: > 100 µM
HCT-15 colon
  TGI: > 100 µM
HT29 colon
  TGI: > 100 µM

## Cc1c(Cl)nc(Nc2nc3ccccc3[nH]2)nc1Cl
SK-MEL-28 melanoma
  TGI: > 100 µM
NCI-H226 lung
  TGI: > 100 µM
HCT-116 colon
  TGI: > 100 µM
SR leukemia
  TGI: > 100 µM
HL-60(TB) leukemia
  TGI: > 100 µM
A498 renal
  TGI: > 100 µM
HCT-15 colon
  TGI: > 100 µM
HT29 colon
  TGI: 89 µM

## CN(C)c1ccc(C(=C(c2ccc(N(C)C)cc2)c2ccc(N(C)C)cc2)c2ccc(N(C)C)cc2)cc1
SK-MEL-28 melanoma
  TGI: 29.4 µM
HCC-2998 colon
  TGI: 35.3 µM
NCI-H226 lung
  TGI: 36.9 µM
HCT-116 colon
  TGI: 42.1 µM
SR leukemia
  TGI: 30.8 µM
HL-60(TB) leukemia
  TGI: 26.5 µM
A498 renal
  TGI: 36.8 µM
HCT-15 colon
  TGI: 32.7 µM
HT29 colon
  TGI: 35.2 µM

## CCCSc1ccc2[nH]c(N3C(=O)/C(=C/c4ccco4)N=C3c3ccccc3)cc2c1
SK-MEL-28 melanoma
  TGI: > 50 µM
HCC-2998 colon
  TGI: > 50 µM
HCT-116 colon
  TGI: > 50 µM
SR leukemia
  TGI: > 50 µM
MCF7 breast
  TGI: > 50 µM
HL-60(TB) leukemia
  TGI: > 50 µM
A498 renal
  TGI: > 50 µM
HCT-15 colon
  TGI: > 50 µM
HT29 colon
  TGI: > 50 µM

## NC(CCCC(N)P(=O)(O)c1ccccc1)P(=O)(O)c1ccccc1 (stereo not given)
SK-MEL-28 melanoma
  TGI: > 261 µM
HCC-2998 colon
  TGI: > 261 µM
NCI-H226 lung
  TGI: > 261 µM
HCT-116 colon
  TGI: > 261 µM
SR leukemia
  TGI: > 261 µM
HL-60(TB) leukemia
  TGI: > 261 µM
A498 renal
  TGI: > 261 µM
HCT-15 colon
  TGI: > 261 µM
HT29 colon
  TGI: > 261 µM
